Laboratory results from patent publication US12527782B2, “Use of hexokinase 2/mitochondria-detaching compounds for treating hexokinase-2 (HK2)-expressing cancers” (Vidac Pharma Ltd., priority 2016, dated 2026).
“Also recorded” adds a separate entry of the source.

Experiments:
[1] = system: Lung (NSCLC, adeno) LXFA 749; test: CFA, LXFA 749; type: cell-based, human; conditions: PDX/CFA
Method: (§1) CFA was performed by Charles River Laboratories (Freiburg, Germany) in 96-well plate format according to a modified two-layer soft agar assay. The origin of the tumor xenografts has been described (Fiebig et al. 1989, incorporated herein by reference). The list of tumors used in this study is detailed in Table 1.

[2] = system: Leukemia (BCLL) LEXFCL MEC-1; test: CFA, LEXFCL MEC-1; type: cell-based, human; conditions: Cell line/CFA
Method: as §1

Kidney RXF 423 = test: CFA, RXF 423; type: cell-based, human; conditions: PDX/CFA
Method: as §1

[3] = system: Lung (NSCLC, epidermoid) LXFE 937; test: CFA, LXFE 937; type: cell-based, human; conditions: PDX/CFA
Method: as §1

CTCL cell line MJ = test: PrestoBlue cell viability, MJ; type: cell-based, human; conditions: 72 hours, read-out: absolute IC50, cell viability
Method: (§2) Cutaneous T-cell lymphoma (CTCL) cell lines MJ and Hut78 were purchased from ATCC (CRL-8294, and TIB-161, respectively). Cells were grown in Iscove's Modified Dulbecco's Media supplemented with 2 mM L-glutamine, 10% fetal bovine serum, 100 U/mL of penicillin and 0.1 mg/mL of streptomycin.
(§3) Cells (1-2×10^4) were seeded in 96-well plates and treated with Formula C. Cell viability was determined 72 hours later using PrestoBlue reagent according to manufacturer's instruction (Life Technologies). The percentage of viability was expressed according to the fluorescence emitted by Formula C-treated cells compared to DMSO-treated control cells. The florescence emission values at 590 nm were measured with the plate-reader Spark 10M—multimode microplate reader (TECAN).

[4] = system: Cutanous T cell lymphoma Hut-78; test: XTT cell viability assay, Hut-78; type: cell-based, human; conditions: Cell line/XTT
Method: For XTT assays, cells were plated in 96-well plates (5,000 cells per well) for 24 hours. Cells were then incubated with different concentrations of Formula C in triplicates for 72 hr in DMEM supplemented with 0.5% FCS and 5 mM Glucose. Cell viability was evaluated using 2,3-bis-(2-methoxy-4-nitro-5-sulfophenyl)-2H-tetrazolium-5-carboxanilide (XTT)-based colorimetric assay kit (Biological Industries Ltd., Kibbutz Beit-Haemek, Israel). The optical density was measured by an Infinite 200 ELISA reader at 450 nm and reference was measured at 630 nm (Tecan, Männedorf, Switzerland).

CTCL cell line Hut-78 = test: PrestoBlue cell viability, Hut-78; type: cell-based, human; conditions: 72 hours
Method: as §2, §3

[5] = system: Leukemia (AML) LEXFAM NOMO-1; test: CFA, LEXFAM NOMO-1; type: cell-based, human; conditions: Cell line/CFA
Method: as §1

[6] = system: Leukemia (AML) LEXFAM HL-60; test: CFA, LEXFAM HL-60; type: cell-based, human; conditions: Cell line/CFA
Method: as §1

[7] = system: Lung (NSCLC, epidermoid) LXFE 772; test: CFA, LXFE 772; type: cell-based, human; conditions: PDX/CFA
Method: as §1

Lung (SCLC) LXFS 538 = test: CFA, LXFS 538; type: cell-based, human; conditions: PDX/CFA
Method: as §1

[8] = AK/cSCC mouse model of chronic UVB exposure: local and general tolerability; type: in vivo; conditions: UVB-exposed SKH-1 mice, Day 1 through Day 50
Method: The formulation ingredients for vehicle, 2.5%, and 5% Formula C ointment consisted of: 32% Gelucire44/14® (Gattefosse, Saint-Priest, France), and 68% combined Labrasol® (Gattefosse, Saint-Priest, France) with corresponding amount of Formula C (w/w). New ointments were prepared every 2 weeks. The 40% topical solution was prepared just prior to use by mixing (w/w) 60% propylene glycol (Sigma, St. Louis, MO, USA) with 40% Formula C.
The effect of Formula C on cell proliferation and apoptosis was tested in an AK/cSCC mouse model of chronic UVB exposure. Forty-eight SKH-1 hairless female mice were chronically exposed to UVB radiation for 16 weeks. By that time, more than 60% of the animals had developed at least one SCC lesion. Three days after the final irradiation dose, the mice were randomly assigned to 1 of 4 treatment groups (N=12 mice/group) and a 50-day treatment phase started. Treatment groups included: vehicle, 2.5% or 5% Formula C ointment applied once-daily for 50 days, or 40% Formula C topical solution applied once-daily for the first 5 days of every three-week cycle (total of three treatment cycles).

HK2 = target: T1, HK2 (Homo sapiens, UniProt P52789); test: HK catalytic activity coupled enzymatic assay, HK2; type: biochemical; conditions: as a function of ATP or glucose; absence or presence of 10 M Formula C
T1 construct: host or cells: E. coli
Method: A431 (human skin SCC), HT-297.T (human AK), and HaCaT transformed normal keratinocyte cell lines were from ATCC (Manassas, VA) and were maintained in DMEM supplemented with 10% FCS, 4 mM L-Gln, 1 mM sodium pyruvate, 100 U/mL penicillin, 1 μg/mL streptomycin. Human HK1 and HK2 plasmids were purchased from Addgene (Cambridge, MA) and were purified from E. Coli. VDAC1 was purified from sheep liver mitochondria as described (Arbel et al. 2012, incorporated herein by reference). Human skin tissue microarray (SK208 and SK 805) were purchased from US Biomax Inc. (Rockville, MD).
Hexokinase catalytic activity was determined by the coupled enzymatic assay in which hexokinase catalyzes the conversion of glucose to G6P, which is then oxidized by glucose-6-phosphate dehydrogenase (G6PDH) in the presence of NADP to form 6-Phospho-D-Gluconate and NADPH. NADPH production results in a colorimetric signal at 340 nm, which is proportional to the hexokinase catalytic activity. The readings were recorded in an ELISA plate reader Infinite 200 ELISA reader (Tecan, Männedorf, Switzerland).

Kidney RXF 1220 = test: CFA, RXF 1220; type: cell-based, human; conditions: PDX/CFA
Method: as §1

[9] = system: Leukemia (BCLL) LEXFCM EM-2; test: CFA, LEXFCM EM-2; type: cell-based, human; conditions: Cell line/CFA
Method: as §1

[10] = system: Leukemia (BCLL) LEXFCM JURL-MK1; test: CFA, LEXFCM JURL-MK1; type: cell-based, human; conditions: Cell line/CFA
Method: as §1

[11] = system: Lymphoma (Non-Hodgkin) LYXF MY-LA; test: CFA, LYXF MY-LA; type: cell-based, human; conditions: Cell line/CFA
Method: as §1

[12] = system: Leukemia (ALL) LEXFAL CCRF-CEM; test: CFA, LEXFAL CCRF-CEM; type: cell-based, human; conditions: Cell line/CFA
Method: as §1

Lung (SCLC) LXFS 573 = test: CFA, LXFS 573; type: cell-based, human; conditions: PDX/CFA
Method: as §1

T1 sequence (P52789 whole entry): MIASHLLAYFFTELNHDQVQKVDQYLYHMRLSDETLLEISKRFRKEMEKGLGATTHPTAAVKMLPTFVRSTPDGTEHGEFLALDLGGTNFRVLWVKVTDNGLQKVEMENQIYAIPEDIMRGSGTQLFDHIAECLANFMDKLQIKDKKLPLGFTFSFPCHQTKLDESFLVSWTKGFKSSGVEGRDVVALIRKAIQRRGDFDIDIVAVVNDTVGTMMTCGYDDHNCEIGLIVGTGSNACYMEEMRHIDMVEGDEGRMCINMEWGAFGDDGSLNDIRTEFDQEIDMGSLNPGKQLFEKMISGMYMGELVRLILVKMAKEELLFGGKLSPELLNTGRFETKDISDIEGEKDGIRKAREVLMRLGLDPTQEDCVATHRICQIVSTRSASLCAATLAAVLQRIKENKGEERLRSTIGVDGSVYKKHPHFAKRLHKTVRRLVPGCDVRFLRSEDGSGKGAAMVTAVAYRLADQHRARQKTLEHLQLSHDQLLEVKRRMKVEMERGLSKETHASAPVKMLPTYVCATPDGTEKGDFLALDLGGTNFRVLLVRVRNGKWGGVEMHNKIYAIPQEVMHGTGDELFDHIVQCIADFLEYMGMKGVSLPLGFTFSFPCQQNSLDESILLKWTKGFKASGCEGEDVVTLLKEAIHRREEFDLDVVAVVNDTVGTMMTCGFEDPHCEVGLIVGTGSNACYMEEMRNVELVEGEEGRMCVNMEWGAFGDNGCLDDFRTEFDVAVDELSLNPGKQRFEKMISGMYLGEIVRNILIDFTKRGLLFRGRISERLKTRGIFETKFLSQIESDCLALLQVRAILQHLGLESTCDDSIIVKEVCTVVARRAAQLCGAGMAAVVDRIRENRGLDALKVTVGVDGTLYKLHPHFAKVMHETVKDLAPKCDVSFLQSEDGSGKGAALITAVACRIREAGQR

CC/C=C\CC1C(=O)CCC1CC(=O)Oc1cccc2cccnc12 (stereo not shown) [Formula C]
IC50 [1]: 1700 nM
IC50 [2]: 1160 nM
IC50 (Kidney RXF 423): 1700 nM
IC50 [3]: 5.57 µM
IC50 (CTCL cell line MJ): 1770 nM
IC50 [4]: 1060 nM
IC50 (CTCL cell line Hut-78): 1060 nM
IC50 [5]: 1420 nM
IC50 [6]: 1540 nM
IC50 [7]: 3.78 µM
IC50 (Lung (SCLC) LXFS 538): 163 nM
adverse local skin reactions ([8]; 2.5%, 5% ointment or 40% topical solution): no adverse local skin reactions of any kind
body weight abnormalities [8]: no abnormalities in body weight
clinical signs [8]: no clinical signs
erythema or edema [8]: no erythema or edema
HK2 catalytic activity (HK2): does not affect; also recorded: did not affect the catalytic activity
IC50 (Kidney RXF 1220): 6.33 µM
IC50 [9]: 2780 nM
IC50 [10]: 1670 nM
IC50 [11]: 1000 nM
IC50 [12]: 206 nM
IC50 (Lung (SCLC) LXFS 573): 1940 nM
